From patent publication US20200190172A1, “METHOD FOR DIAGNOSING/DETERMINING THE EFFECTIVENESS OF TREATMENT FOR DEPRESSION” (Centre National De La Recherche Scientifique, priority 2016, published 2020)
Where no end group is shown, it is not given here.

T1: TREK-1 potassium channel (Mus musculus, UniProt P97438)
T1 construct: host or cells: living mice (endogenous channel)
T1 sequence (P97438 1-426): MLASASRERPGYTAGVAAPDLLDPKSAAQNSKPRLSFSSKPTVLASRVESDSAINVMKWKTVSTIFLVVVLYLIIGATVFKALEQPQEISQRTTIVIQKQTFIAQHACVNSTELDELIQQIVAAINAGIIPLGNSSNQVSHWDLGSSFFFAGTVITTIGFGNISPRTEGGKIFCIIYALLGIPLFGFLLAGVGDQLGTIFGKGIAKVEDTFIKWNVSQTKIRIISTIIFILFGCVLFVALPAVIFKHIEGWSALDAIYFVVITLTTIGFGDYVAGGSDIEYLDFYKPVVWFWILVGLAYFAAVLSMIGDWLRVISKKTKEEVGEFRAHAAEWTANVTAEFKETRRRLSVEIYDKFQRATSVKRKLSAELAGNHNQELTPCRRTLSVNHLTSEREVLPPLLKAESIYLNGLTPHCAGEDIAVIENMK


How the values were obtained:
[1] = tested on: anti-spadin antibodies (AB1 polyclonal antibody); test: AlphaLISA competition assay: biotinylated spadin / anti-spadin antibody displaced by peptides; assay type: binding, rabbit; settings: for recognition by the anti-spadin antibodies (AB1): AlphaLISA, FIG. 1A-1C; for IC50: competition with 10 nM biotinylated spadin, antibody 1:1000
Description: The antibody used was the AB1 antibody, as mentioned above.
When two microbeads (acceptors and donors) were in close proximity, the signal was produced by a molecular interaction between the binding partners on the beads. The propeptide present in the serum sample was able to interfere with this interaction leading to competition. […] After the addition of donor and acceptor beads and an additional incubation for 2 hours at room temperature, the plates were read using an Enspire reader (Perkin). […] The quantity of propeptide was determined from its signal percent inhibition and calculated using the standard curve.

mice = test: Porsolt Forced Swim Test (FST); assay type: in vivo, mice (C57BL/6J); settings: for Antidepressant activity: Porsolt Forced Swim Test, intravenous injection, mice; for immobility time compared to saline solution: FST, final 4 min of 6 min, p<0.0001 spadin, 12-27 PE, 22-28 PE, p=0.0026 14-25 PE
Description: The experiments were performed on males of 20-25 g C57BL/6J of 8-10 weeks old (January France Elevage) in accordance with the policies on the welfare and use of laboratory animals set out in European Community Directive 2010/63/EU. The local ethics committee (CIEPAL) has approved the protocols used in this study (Protocol Number 00.893.02).
After intravenous injection of saline solution or various tested peptides, the mice (n=10-12 per group) were placed individually in a cylinder (height: 30 cm, diameter: 15 cm) filled with water to a depth of 12 cm (temperature: 22±1° C.) for 6 min. The total immobility time was recorded during the final 4 min (Porsolt et al., 1977).

AB2 polyclonal antibody = test: Recognition of PE fragments by AB2 polyclonal antibody (FIG. 1A); assay type: binding, rabbit
Text: FIG. 1: FIG. 1A is a diagram representing the structure/recognition relationships of the antibodies AB1 and AB2 according to the different fragments. […] FIGS. 1B and 1C represent the relative affinities for spadin, PE and analogs assayed by the detection method.
In particular, antibodies AB1 and AB2 were obtained by injecting into two rabbits, namely Oryctolagus cuniculus, spadin coupled to KLH (Keyhole limpet hemocyanin protein) (AB1) or mini-spadin (22-28 PE) coupled to KLH (AB2) on day 0, DO (1 mg), day 7, D7 (1 mg), day 14, D14 (1 mg) and day 29, D29 (1 mg). Blood samples, namely 20 ml, were taken on day 27 (D27) and day 42 (D42). The polyclonal serum was obtained by centrifuging at 1200×g for 10 min. The polyclonal serum corresponding to the supernatant was recovered. The immune response was checked by ELISA for each antibody. The antibodies contained in the serum were kept at −20° C.

TREK-1 potassium channel = biological target: T1, TREK-1 potassium channel; settings: injected intravenously or intraperitoneally into mice; by inhibiting TREK-1 channel activity; cited from earlier work
[2] = Stability of PE in human serum (AlphaLISA); assay type: in vitro ADME; settings: serum with or without EDTA, room temperature (22° C.), 24 h
Description: FIG. 3: FIG. 3 is a histogram representing the stability of PE in the human serum. Serums with or without EDTA (n=7 for each matrix) from healthy blood donors were tested for their stability at room temperature for 24 h. The PE concentration for each incubation period was determined using an AlphaLISA assay method. The average concentrations at the different points in time are expressed as an average ±SEM.
The antidepressant activity of the analogs was tested using the FST. […] (Ordinarily ANOVA, F5.54=20.21, **** p<0.0001 for spadin, 12-27 PE and 22-28 fragments compared to saline mice treated with a saline solution, ** p=0.0026 for 14-25 PE fragment compared to saline mice treated with a saline solution; error bars, average ±SEM). […] A study of the stability of PE in human serum was carried out. FIG. 3 is a histogram representing the stability of PE in human serum. Serums with or without EDTA (n=7 for each matrix) from healthy blood donors were tested for their stability at room temperature (22° C.) for 24 h. The PE concentration for each incubation period was determined using an AlphaLISA assay method. In FIG. 3, the average concentrations at the different time points are expressed as an average ±SEM. […] The unpaired t test for the PE concentration between serum and EDTA-serum indicated no significant difference for each time.

[3] = biological target: polyclonal antibodies (AB1) directed against the peptide of sequence … (Spadin); test: AlphaLISA competition against biotinylated spadin (differs from Table 2)
[4] = biological target: polyclonal antibodies (AB1) directed against the peptide of sequence … (Spadin); test: AlphaLISA competition, unlabelled peptide against 10 nM biotinylated spadin on AB1 (1:1000)

Molecule	recognition by the anti-spadin antibodies (AB1) [1]	IC50 [1]	Antidepressant activity (mice)	IC50 [4]	also measured
C[C@H](N)C(=O)NCC(=O)N[C@H]1CSSC[C@@H](C(=O)O)NC(=O)[C@H](CO)NC(=O)[C@H]([C@@H](C)O)NC(=O)[C@H](Cc2ccccc2)NC(=O)[C@H]([C@@H](C)O)NC(=O)[C@H](CCCCN)NC(=O)[C@H](Cc2c[nH]c3ccccc23)NC(=O)[C@H](Cc2ccccc2)NC(=O)[C@H](Cc2ccccc2)NC(=O)[C@H](CC(N)=O)NC(=O)[C@H](CCCCN)NC1=O [somatostatin-14, reference compound]	not recognized	–	–	–	recognition by the anti-spadin antibodies (AB1) ([1]; listed as somatostatin): incapable of interfering
QDRLDAPPPPAAPLPR [1-16 PE, peptide fragment 1 to 16 of the propeptide]	not recognized	> 1000 nM	No	–	–
APLPRWSGPIGVSWGL [12-27 PE, peptide fragment 12 to 27 of the propeptide]	recognized	1.73 nM	showed an antidepressant activity and Yes	–	recognition by the anti-spadin antibodies (AB1) ([1]; listed as SEQ ID NO 3): binds; immobility time compared to saline solution (mice): shorter immobility time
WSGPI [SEQ ID NO 5]	binds	–	–	–	–
GVSWGLR [22-28 PE, peptide fragment 22 to 28 of the propeptide]	not recognized	> 1000 nM	Yes	–	recognition by the anti-spadin antibodies (AB1) ([1]; listed as SEQ ID NO 6): sole exception; immobility time compared to saline solution (mice): shorter immobility time; binding by AB2 polyclonal antibody (AB2 polyclonal antibody): bound
LPRWSGPIGVSW [14-25 PE, peptide fragment 14 to 25 of the propeptide]	recognized	3.44 nM	showed an antidepressant activity and Yes	–	recognition by the anti-spadin antibodies (AB1) ([1]; listed as SEQ ID NO 4): binds; immobility time compared to saline solution (mice): shorter immobility time
APLPRWSGPIGVSWGLR [spadin]	recognized	2.5 nM	showed an antidepressant activity	–	recognition by the anti-spadin antibodies (AB1) ([1]; listed as SEQ ID NO 2): binds; immobility time compared to saline solution (mice): shorter immobility time; Antidepressant activity (mice; listed as spadin 12-28 PE): Yes; binding by AB2 polyclonal antibody (AB2 polyclonal antibody): bound; antidepressant (AD) activities (TREK-1 potassium channel): powerful antidepressant (AD) activities
QDRLDAPPPPAAPLPRWSGPIGVSWGLRAAAAGGAFPRGGRWRR [PE]	–	–	–	–	stability of PE in human serum [2]: stability of the SLI measurement for 24 hours at room temperature
APLPRWSGPIGVSWGL [12-27 PE]	–	–	–	1.73 nM	IC50 [3]: 3.44 nM
QDRLDAPPPPAAPLPR [1-16 PE (pro-spadin)]	–	–	–	> 1000 nM	–
APLPRWSGPIGVSWGLR [spadin 12-28 PE]	–	–	–	2.5 nM	–
GVSWGLR [22-28 PE]	–	–	–	> 1000 nM	–
QDRLDAPPPPAAPLPRWSGPIGVSWGLRAAAAGGAFPRGGRWRR [Propeptide (PE) 44AA]	–	–	–	2.18 nM	–
LPRWSGPIGVSW [14-25 PE]	–	–	–	3.44 nM	IC50 [3]: 1.73 nM
